Assay results published in patent publication US5231091A, “Bis-arylphosphate ester antagonists of platelet activating factor” (priority 1992, dated 1993).
Counter-ions that a name gives are not always drawn.

Experiments:
PAF receptor [1] = target: T1, PAF receptor (Homo sapiens, UniProt P25105); experiment: Inhibition of PAF-induced aggregation in human platelet rich plasma; format: cell-based; details: PAF challenge 1E-6M, number of experiments in parentheses
T1 construct: Blood from healthy volunteers was collected; endogenous in cells; host or cells: human platelets (healthy volunteers)
T1 sequence (P25105 whole entry): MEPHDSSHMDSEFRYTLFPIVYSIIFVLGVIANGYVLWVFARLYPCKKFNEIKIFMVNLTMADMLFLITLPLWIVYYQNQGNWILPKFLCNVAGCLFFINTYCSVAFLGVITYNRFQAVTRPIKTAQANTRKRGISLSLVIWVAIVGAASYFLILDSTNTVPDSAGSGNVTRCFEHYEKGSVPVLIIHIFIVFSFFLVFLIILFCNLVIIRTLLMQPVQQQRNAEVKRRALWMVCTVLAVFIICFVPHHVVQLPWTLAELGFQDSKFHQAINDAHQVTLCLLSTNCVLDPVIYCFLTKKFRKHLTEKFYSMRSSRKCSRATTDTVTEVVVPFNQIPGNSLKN
Protocol: (§1) Test compounds were evaluated as PAF receptor antagonists in vitro by measuring inhibition of PAF (platelet activating factor) induced platelet aggregation. Platelet aggregation was measured by a modification of the method described in A. Wissner, et. al., J. Med. Chem., 27, 1174, 1984.
(§2) L-PAF was obtained from Calbiochem. A stock solution of 1-2 E-3M was prepared in 10% ethanol in water or 100% methanol and serial working dilutions were made using phosphate buffered saline (PBS). 1-2 E-3M stock solutions of test compounds were prepared in 100% methanol and serially diluted in PBS. All solutions were made up in plastic tubes, stored on ice and protected from heat and light. Solutions were prepared fresh or frozen at -20° C. and used within 48 hours.
(§3) Incubation mixtures consisted of 400 μl PRP, 50 μl of PBS diluent or test compound and 50 μl of PAF agonist. More specifically, 400 μl of PRP was stabilized in a cuvette for 1-2 minutes at 37° C. in the aggregometer to achieve a stable baseline, then 50 μl of PBS or test compound, was added and incubated for 5 minutes before addition of the challenge concentration of PAF (final concentration of 5E-8M or 1E-7M, as determined from the dose response curve for PAF for that experiment). Aggregation was monitored for 5 minutes. Samples containing test compound or diluent were run simultaneously for comparison. Test compounds were initially evaluated at a screening concentration of 1E-5M.
(§4) The recording equipment consisted of a dual channel Chronolog aggregometer connected to a dual channel 10 MV full scale deflection Omniscribe chart recorder (Houston Instruments). […] The bead suspension was used to set the 0% light transmission mark and clear water was used to set the 100% light transmission mark. These limits defined a full scale deflection. The aggregation traces were analyzed by a digitizing method (C. Kohler and B. Zoltan, J. Pharm. Methods, 12, 113, 1984) with x, y coordinate data stored in a computer file. A suitable program computed parameters of interest such as the magnitude of aggregation.
In some experiments, human PRP was used instead of rabbit PRP. Blood from healthy volunteers was collected in Vacutainers® containing the Na citrate diluent and processed in a manner similar to rabbit blood to obtain the PRP. For these experiments, the challenge concentration of PAF was 1E-6M.

PAF receptor [2] = target: T2, PAF receptor (Oryctolagus cuniculus, UniProt G1TEI7); experiment: Inhibition of PAF-induced aggregation in rabbit platelet rich plasma; format: cell-based, rabbit (male New Zealand White); details: rabbit platelet rich plasma; PAF challenge 5E-8M; number of experiments in parentheses; read-out: IC50 inhibition of PAF-induced aggregation
T2 construct: endogenous in cells; host or cells: rabbit platelets (male New Zealand White)
T2 sequence (G1TEI7 1-342): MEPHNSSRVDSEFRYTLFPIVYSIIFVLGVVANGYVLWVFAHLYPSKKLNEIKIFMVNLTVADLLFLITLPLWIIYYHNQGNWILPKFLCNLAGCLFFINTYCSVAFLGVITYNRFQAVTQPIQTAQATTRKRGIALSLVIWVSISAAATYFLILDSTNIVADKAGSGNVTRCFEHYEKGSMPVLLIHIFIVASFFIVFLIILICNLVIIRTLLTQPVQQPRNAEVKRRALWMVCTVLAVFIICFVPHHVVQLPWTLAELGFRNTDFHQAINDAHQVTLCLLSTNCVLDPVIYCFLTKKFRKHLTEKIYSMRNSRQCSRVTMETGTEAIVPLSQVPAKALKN
Protocol: as §1
Approximately 120-240 ml of blood were collected by cardiac puncture from unanesthetized male New Zealand White rabbits (Whaley's Summit View Farms, Belvedere, N.J.) with the use of 3.2% sodium citrate anticoagulant (1 part of citrate/10 parts of blood). All syringes and pipets were plastic. The blood was gently mixed and immediately centrifuged at 800 rpm for 10-15 minutes at room temperature to recover the platelet rich plasma (PRP). Platelet poor plasma (PPP) was prepared by centrifuging PRP at 2800 rpm for 10 minutes at room temperature.
Dilutions (1:3000) of PRP in Isoton® diluent were made and platelet counts were determined on a Coulter Thrombocounter which was standardized with platelet reference standards (Interscience Platelet Control, Portland, Oreg.). PRP platelet counts were adjusted to approximately 400,000-500,000 platelets/μl by the addition of PPP.
as §2, §3, §4

[3] = tested on: endotoxin induced mortality; experiment: Endotoxin induced shock and mortality in mice; format: in vivo, mouse (male Balb/c)
Description: The test compounds (PAF antagonists) were also efficacious when administered iv prior to a lethal iv injection of endotoxin (Table IX).

LPS induced hypotension = experiment: Endotoxin (LPS) induced hypotension in rats; format: in vivo, rat (male Wistar); details: anesthetized rats; 10 ug/kg intraarterially 5 minutes after LPS 15 mg/kg I.V.
Protocol: Bacterial cell wall lipopolysaccharide from E. coli strain 0111:B4 (Sigma #L-2630) was dissolved in saline at a concentration of 3.75 mg/ml and administered to rats at 15 mg/kg I.V. Test compounds were dissolved in saline at 1 mg/ml, diluted to 10 ug/ml, and injected intraarterially at 1 ml/kg (10 ug/kg). Male wistar strain rats were obtained from Charles River Labs and maintained according to ALAC standards. They were anesthetized with 30 mg/kg pentobarbital ip with supplementation as needed. The throat was opened, the left carotid artery was cannulated with PE-10 tubing and the trachea cannulated with 0.100 O.D. tubing. Ventilation was maintained by a Harvard Apparatus small animal pump at a rate sufficient to nearly abolish spontaneous respiration.

PAF induced lethality = PAF induced lethality in mice; format: in vivo; details: corrected for control lethality
Protocol: PAF given I.V. to mice causes an immediate hypotensive shock leading to death in 1 hour or less. Compounds were given intraperitoneally or P.O. at various times before the PAF challenge. Animals alive after 2 hours were counted and the activity of test compounds expressed as % survival corrected for any control (saline treated) animals which survived the PAF challenge.

PAF induced skin lesions = experiment: Guinea pig vascular permeability (skin lesion) model; format: in vivo, guinea pig (Hartley)
PAF receptor [4] = target: T2, PAF receptor; experiment: Inhibition of PAF-induced aggregation in washed rabbit platelets; format: cell-based; details: PAF challenge 5E-9M, number of experiments in parentheses
Protocol: as §1, §2
as §3, with “More” for “Incubation mixtures consisted of 400 μl PRP, 50 μl of PBS diluent or test compound and 50 μl of PAF agonist. More”, “400 μl of PRP was stabilized in a cuvette” left out, “1E-5M. […]” for “1E-5M.”

[5] = 10 mg/kg IP 2 hours prior to IP endotoxin
[6] = footnote c: I.P. 4 mg/kg 1 hour before PAF

Row | Compound | IC50 (PAF receptor [1]) [µM] | IC50 (PAF receptor [2]) [µM] | 24 hour survival, treated [3, 5] | PAF induced lethality, % protection (PAF induced lethality; I.P. 10 mg/kg) [%] | also measured
1 | CCCCCCCCCCCCOc1cc(C(C)(C)C)c(OP(=O)([O-])Oc2cccc(C[n+]3cccc4ccccc43)c2)cc1C(C)(C)C [1-[[3-[[[2,5-Bis(1,1-dimethylethyl)-4-(dodecyloxy)phenoxy] hydroxyphosphinyl]oxy]phenyl]methyl]quinolinium, hydroxide, inner salt] | 47.5 | 1.36 | – | – | –
2 | CCCCCCCCCCCCCCOc1cccc(OP(=O)([O-])Oc2cccc(C[n+]3ccsc3)c2)c1OC [3-[[3-[[Hydroxy]2-methoxy-3-(tetradecyloxy)phenoxy]-phosphinyl]oxy]phenyl]methyl]-thiazolium, hydroxide inner salt] | 26.4 | 7.5 | 7/30 | 12 | 24 hour survival, treated ([3]; 30 mg/kg IP 2 hours prior to IP endotoxin, control 4/50): 12/50; Survival after 24 hrs., treated ([3]; Table IX, 10 mg/kg iv prior to iv endotoxin, footnote prints IP, control 0/20): 4/20; % reversal of LPS induced hypotension (fall in mean arterial pressure) (LPS induced hypotension): 89%; PAF induced skin lesions, % of control (PAF induced skin lesions; [6]): 75%
3 | CCCCCCCCCCCCOc1cc(C(C)(C)C)c(OP(=O)([O-])Oc2cccc(C[n+]3ccsc3)c2)cc1C(C)(C)C [3-[[3-[[[2,5-Bis(1,1-dimethylethyl)-4-(dodecyloxy)phenoxy]hydroxyphosphinyl]oxy]phenyl]methyl]thiazolium, hydroxide, inner salt] | 1.93 | – | 4/20 | – | 24 hour survival, treated ([3]; 20 mg/kg IP 2 hours prior to IP endotoxin): 6/20; 24 hour survival, treated ([3]; 40 mg/kg IP 2 hours prior to IP endotoxin): 6/20; IC50 (PAF receptor [4]): 0.00212 µM; PAF induced lethality, % protection (PAF induced lethality; [6]): 27%; PAF induced skin lesions, % of control (PAF induced skin lesions; footnote d: P.O. 5 mg/kg 4 hours before PAF): 49%
4 | CCCCCCCCCCCCCCCCOc1cccc(OP(=O)([O-])Oc2cccc(C[n+]3ccsc3)c2)c1C [3-[[3-[[[3-(Hexadecyloxy)-2-methylphenoxy]hydroxyphosphinyl]oxy]phenyl]methyl]-thiazolium, hydroxide, inner salt] | 0.119 | 2.65 | – | – | –
5 | CCCCCCCCCCCCCCCCOc1cccc(OP(=O)([O-])Oc2cccc(C[n+]3ccsc3)c2)c1 [3-[[3-[[[3-(Hexadecyloxy)phenoxy]hydroxyphosphinyl]-oxy]phenyl]methyl]-thiazolium, hydroxide, inner salt] | 2.5 | 2.13 | – | – | –
6 | CCCCCCCCCCCCCCCCOc1ccc(OP(=O)([O-])Oc2cccc(C[n+]3ccsc3)c2)cc1 [3-[[3-[[[4-(Hexadecyloxy)phenoxy]hydroxyphosphinyl]-oxy]phenyl]methyl]thiazolium, hydroxide, inner salt] | – | 3.28 | – | 96 | –
